Species: Rattus norvegicus
Assay: DrugMatrix - Regimen: Daily Repeat
Assay type: toxicity, organism-based, Sprague-Dawley
Set-up: regimen Daily Repeat, gender Male, age 6-8 weeks
Conditions: in vivo, po, 50 mg/kg, route oral GAVAGE, dose level Low, […]; for ABSOLUTE BASOPHIL / ABSOLUTE EOSINOPHIL / ABSOLUTE LYMPHOCYTE / ABSOLUTE MONOCYTE / ABSOLUTE SEGMENTED NEUTROPHIL / BASOPHIL / EOSINOPHIL / ERYTHROCYTE COUNT / HEMATOCRIT / HEMOGLOBIN / LEUKOCYTE COUNT / LYMPHOCYTE / MEAN CORPUSCULAR HEMOGLOBIN / MEAN CORPUSCULAR HEMOGLOBIN CONCENTRATION / MEAN CORPUSCULAR VOLUME / MONOCYTE / NEUTROPHIL / NUCLEATED RED BLOOD CELLS / PLATELET COUNT: tissue Blood; for ALANINE AMINOTRANSFERASE / ALBUMIN / ALKALINE PHOSPHATASE / ASPARTATE AMINOTRANSFERASE / BLOOD UREA NITROGEN / CARBON DIOXIDE / CHLORIDE / CHOLESTEROL / CREATINE PHOSPHOKINASE / CREATININE / GLUCOSE / LACTATE DEHYDROGENASE / LIPASE / PHOSPHORUS / POTASSIUM / SODIUM / TOTAL BILIRUBIN / TOTAL PROTEIN / URIC ACID: tissue Plasma

COC(=O)Nc1nc2ccc(Sc3ccccc3)cc2[nH]1 [FENBENDAZOLE]
ABSOLUTE BASOPHIL (72 h, time 3 day): 0 CELLS/uL | ABSOLUTE EOSINOPHIL (72 h, time 3 day): 0 CELLS/uL | ABSOLUTE LYMPHOCYTE (72 h, time 3 day): 13096 CELLS/uL | ABSOLUTE MONOCYTE (72 h, time 3 day): 168.67 CELLS/uL | ABSOLUTE SEGMENTED NEUTROPHIL (72 h, time 3 day): 1268.67 CELLS/uL | BASOPHIL (72 h, time 3 day): 0% | EOSINOPHIL (72 h, time 3 day): 0% | ERYTHROCYTE COUNT (72 h, time 3 day): 5.64 x10E6/uL | HEMATOCRIT (72 h, time 3 day): 35.13% | HEMOGLOBIN (72 h, time 3 day): 13.37 G/DL | LEUKOCYTE COUNT (72 h, time 3 day): 14.53 x10E3/uL | LYMPHOCYTE (72 h, time 3 day): 90.33% | MEAN CORPUSCULAR HEMOGLOBIN (72 h, time 3 day): 23.7 pg | MEAN CORPUSCULAR HEMOGLOBIN CONCENTRATION (72 h, time 3 day): 38.07 G/DL | MEAN CORPUSCULAR VOLUME (72 h, time 3 day): 62.37 fL | MONOCYTE (72 h, time 3 day): 1% | NEUTROPHIL (72 h, time 3 day): 8.67% | NUCLEATED RED BLOOD CELLS (72 h, time 3 day): 0 /100WBC | PLATELET COUNT (72 h, time 3 day): 1087 x10E3/uL | ALANINE AMINOTRANSFERASE (72 h, time 3 day): 79 u/L | ALBUMIN (72 h, time 3 day): 4.07 G/DL | ALKALINE PHOSPHATASE (72 h, time 3 day): 536.67 u/L | ASPARTATE AMINOTRANSFERASE (72 h, time 3 day): 137.67 u/L | BLOOD UREA NITROGEN (72 h, time 3 day): 15 mg/dL | CARBON DIOXIDE (72 h, time 3 day): 27.33 mmol/L | CHLORIDE (72 h, time 3 day): 99.33 MEQ/L | CHOLESTEROL (72 h, time 3 day): 87.33 mg/dL | CREATINE PHOSPHOKINASE (72 h, time 3 day): 508.67 u/L | CREATININE (72 h, time 3 day): 0.16 mg/dL | GLUCOSE (72 h, time 3 day): 146.33 mg/dL | LACTATE DEHYDROGENASE (72 h, time 3 day): 359 u/L | LIPASE (72 h, time 3 day): 10.67 u/L | PHOSPHORUS (72 h, time 3 day): 13.07 mg/dL | POTASSIUM (72 h, time 3 day): 6.5 MEQ/L | SODIUM (72 h, time 3 day): 143.5 MEQ/L | TOTAL BILIRUBIN (72 h, time 3 day): 0.3 mg/dL | TOTAL PROTEIN (72 h, time 3 day): 5.6 G/DL | URIC ACID (72 h, time 3 day): 1.7 mg/dL | ABSOLUTE BASOPHIL (120 h, time 5 day): 0 CELLS/uL | ABSOLUTE EOSINOPHIL (120 h, time 5 day): 126 CELLS/uL | ABSOLUTE LYMPHOCYTE (120 h, time 5 day): 15732 CELLS/uL | ABSOLUTE MONOCYTE (120 h, time 5 day): 245.33 CELLS/uL | ABSOLUTE SEGMENTED NEUTROPHIL (120 h, time 5 day): 1830 CELLS/uL | BASOPHIL (120 h, time 5 day): 0% | EOSINOPHIL (120 h, time 5 day): 0.67% | ERYTHROCYTE COUNT (120 h, time 5 day): 6.25 x10E6/uL | HEMATOCRIT (120 h, time 5 day): 37.37% | HEMOGLOBIN (120 h, time 5 day): 14.73 G/DL | LEUKOCYTE COUNT (120 h, time 5 day): 17.93 x10E3/uL | LYMPHOCYTE (120 h, time 5 day): 88% | MEAN CORPUSCULAR HEMOGLOBIN (120 h, time 5 day): 23.57 pg | MEAN CORPUSCULAR HEMOGLOBIN CONCENTRATION (120 h, time 5 day): 39.43 G/DL | MEAN CORPUSCULAR VOLUME (120 h, time 5 day): 59.83 fL | MONOCYTE (120 h, time 5 day): 1.33% | NEUTROPHIL (120 h, time 5 day): 10% | NUCLEATED RED BLOOD CELLS (120 h, time 5 day): 0 /100WBC | PLATELET COUNT (120 h, time 5 day): 1051.67 x10E3/uL | ALANINE AMINOTRANSFERASE (120 h, time 5 day): 164.33 u/L | ALBUMIN (120 h, time 5 day): 4.1 G/DL | ALKALINE PHOSPHATASE (120 h, time 5 day): 601.67 u/L | ASPARTATE AMINOTRANSFERASE (120 h, time 5 day): 203.67 u/L | BLOOD UREA NITROGEN (120 h, time 5 day): 13.67 mg/dL | CARBON DIOXIDE (120 h, time 5 day): 26.33 mmol/L | CHLORIDE (120 h, time 5 day): 99.33 MEQ/L | CHOLESTEROL (120 h, time 5 day): 85.33 mg/dL | CREATINE PHOSPHOKINASE (120 h, time 5 day): 602.33 u/L | CREATININE (120 h, time 5 day): 0.19 mg/dL | GLUCOSE (120 h, time 5 day): 143.67 mg/dL | LACTATE DEHYDROGENASE (120 h, time 5 day): 615.33 u/L | LIPASE (120 h, time 5 day): 11 u/L | PHOSPHORUS (120 h, time 5 day): 11.27 mg/dL | POTASSIUM (120 h, time 5 day): 6.24 MEQ/L | SODIUM (120 h, time 5 day): 142.9 MEQ/L | TOTAL BILIRUBIN (120 h, time 5 day): 0.27 mg/dL | TOTAL PROTEIN (120 h, time 5 day): 5.6 G/DL | URIC ACID (120 h, time 5 day): 2.17 mg/dL

Reference: ChEMBL document CHEMBL3885881, “DrugMatrix”
